# Experimental data taken from patent US5674979A, “Agent for inhibiting symmetrical proteins, in particular enzymes” (priority 1989, dated 1997).
# Where two headings read alike, the source gives them in different places. Residues, ends and D or L forms follow the SMILES beside them. *: point of attachment. ClAc = O=C(CCl)*
# Tests used:
# [1] = test system: HIV-1; conditions: H9 cells
# Experimental: Compounds (a), (b), (c), (d) were tested in the molarity range from 0.1 μM to 1000 μM. Infectivity tests were carried out as follows: an HIV-1 suspension containing 10^2 infectious units was absorbed on to 5×10^6 H9 cells in a volume of 1 ml for 2 hours at 4° C. After this time, 9 ml of tissue culture medium with the required inhibitor concentration was added. The medium was exchanged with fresh medium plus inhibitor daily. Two control cultures were also prepared, one without inhibitor to determine the normal virus replication rate, the other containing inhibitor but no virus, to determine whether the substances were cytotoxic for H9 cells. […] The amount of virus antigen produced by the infected cells was measured daily using Elisa for eight days, indicating the amount of HIV-1 antigen in the tissue culture medium. After this, the cells were pelleted, washed in medium without inhibitor, and further incubated in inhibitor-less medium. The antigen production was measured on days 9 and 12 (ie 1 and […] after removal of the inhibitor). Virus production was also measured on days 7, 8, 9, and 12 by determining the amount of reverse transcriptase in the supernatant of the cell medium.
# [2] = test system: H9 cells; experiment: Cytotoxicity for H9 cells, trypan blue colouration; type: cell-based; conditions: culture with inhibitor but no virus, 0.1 μM to 1000 μM
# Experimental: (§1) Infectivity tests were carried out as follows: an HIV-1 suspension containing 10^2 infectious units was absorbed on to 5×10^6 H9 cells in a volume of 1 ml for 2 hours at 4° C. After this time, 9 ml of tissue culture medium with the required inhibitor concentration was added. The medium was exchanged with fresh medium plus inhibitor daily. Two control cultures were also prepared, one without inhibitor to determine the normal virus replication rate, the other containing inhibitor but no virus, to determine whether the substances were cytotoxic for H9 cells. […] The amount of virus antigen produced by the infected cells was measured daily using Elisa for eight days, indicating the amount of HIV-1 antigen in the tissue culture medium. After this, the cells were pelleted, washed in medium without inhibitor, and further incubated in inhibitor-less medium. The antigen production was measured on days 9 and 12 (ie 1 and 3 days after removal of the inhibitor). Virus production was also measured on days 7, 8, 9, and 12 by determining the amount of reverse transcriptase in the supernatant of the cell medium.
# [3] = test system: HIV-1
# Experimental: as §1
# [4] = 0,1 μM, day 9 post infection, no inhibitor (after removal)
# [5] = 0,1 μM, day 12 post infection, no inhibitor (after removal)
# [6] = 1 μM, day 9 post infection, no inhibitor (after removal)
# [7] = 1 μM, day 12 post infection, no inhibitor (after removal)
# [8] = 10 μM, day 9 post infection, no inhibitor (after removal)
# [9] = 10 μM, day 12 post infection, no inhibitor (after removal)
# [10] = 100 μM, day 9 post infection, no inhibitor (after removal)
# [11] = 100 μM, day 12 post infection, no inhibitor (after removal)
# [12] = 1000 μM, day 9 post infection, no inhibitor (after removal)
# [13] = 1000 μM, day 12 post infection, no inhibitor (after removal)
smiles,measurement,setting,value
"CC[C@H](C)[C@H](NC(=O)[C@@H]1CCCN1C(=O)[C@H](Cc1ccccc1)NC(=O)[C@H](C)NC(=O)CNC(=O)CCl)C(=O)N[C@@H](C)C(=O)O [C, Cl--CH2 --CO-Gly-Ala-Phe-Pro-Ile-Ala-OH] (ClAc-GAFPIA-OH)",HIV-1 antigen production as measured in antigen capture ELISA,"[1]; 0,1 μM, day 1 post infection","0,062 o. D."
same,HIV-1 antigen production as measured in antigen capture ELISA,"[1]; 0,1 μM, day 2 post infection","0,069 o. D."
same,HIV-1 antigen production as measured in antigen capture ELISA,"[1]; 0,1 μM, day 3 post infection","0,055 o. D."
same,HIV-1 antigen production as measured in antigen capture ELISA,"[1]; 0,1 μM, day 4 post infection","0,052 o. D."
same,HIV-1 antigen production as measured in antigen capture ELISA,"[1]; 0,1 μM, day 5 post infection","0,054 o. D."
same,HIV-1 antigen production as measured in antigen capture ELISA,"[1]; 0,1 μM, day 6 post infection","0,105 o. D."
same,HIV-1 antigen production as measured in antigen capture ELISA,"[1]; 0,1 μM, day 7 post infection","0,276 o. D."
same,HIV-1 antigen production as measured in antigen capture ELISA,"[1]; 0,1 μM, day 8 post infection","0,336 o. D."
same,HIV-1 antigen production as measured in antigen capture ELISA,[1]; [4],"0,588 o. D."
same,HIV-1 antigen production as measured in antigen capture ELISA,[1]; [5],"1,010 o. D."
same,HIV-1 antigen production as measured in antigen capture ELISA,"[1]; 1 μM, day 1 post infection","0,061 o. D."
same,HIV-1 antigen production as measured in antigen capture ELISA,"[1]; 1 μM, day 2 post infection","0,054 o. D."
same,HIV-1 antigen production as measured in antigen capture ELISA,"[1]; 1 μM, day 3 post infection","0,060 o. D."
same,HIV-1 antigen production as measured in antigen capture ELISA,"[1]; 1 μM, day 4 post infection","0,050 o. D."
same,HIV-1 antigen production as measured in antigen capture ELISA,"[1]; 1 μM, day 5 post infection","0,051 o. D."
same,HIV-1 antigen production as measured in antigen capture ELISA,"[1]; 1 μM, day 6 post infection","0,133 o. D."
same,HIV-1 antigen production as measured in antigen capture ELISA,"[1]; 1 μM, day 7 post infection","0,267 o. D."
same,HIV-1 antigen production as measured in antigen capture ELISA,"[1]; 1 μM, day 8 post infection","0,239 o. D."
same,HIV-1 antigen production as measured in antigen capture ELISA,[1]; [6],"0,808 o. D."
same,HIV-1 antigen production as measured in antigen capture ELISA,[1]; [7],"1,042 o. D."
same,HIV-1 antigen production as measured in antigen capture ELISA,"[1]; 10 μM, day 1 post infection","0,069 o. D."
same,HIV-1 antigen production as measured in antigen capture ELISA,"[1]; 10 μM, day 2 post infection","0,048 o. D."
same,HIV-1 antigen production as measured in antigen capture ELISA,"[1]; 10 μM, day 3 post infection","0,066 o. D."
same,HIV-1 antigen production as measured in antigen capture ELISA,"[1]; 10 μM, day 4 post infection","0,064 o. D."
same,HIV-1 antigen production as measured in antigen capture ELISA,"[1]; 10 μM, day 5 post infection","0,049 o. D."
same,HIV-1 antigen production as measured in antigen capture ELISA,"[1]; 10 μM, day 6 post infection","0,099 o. D."
same,HIV-1 antigen production as measured in antigen capture ELISA,"[1]; 10 μM, day 7 post infection","0,228 o. D."
same,HIV-1 antigen production as measured in antigen capture ELISA,"[1]; 10 μM, day 8 post infection","0,292 o. D."
same,HIV-1 antigen production as measured in antigen capture ELISA,[1]; [8],"0,643 o. D."
same,HIV-1 antigen production as measured in antigen capture ELISA,[1]; [9],"1,040 o. D."
same,HIV-1 antigen production as measured in antigen capture ELISA,"[1]; 100 μM, day 1 post infection","0,064 o. D."
same,HIV-1 antigen production as measured in antigen capture ELISA,"[1]; 100 μM, day 2 post infection","0,056 o. D."
same,HIV-1 antigen production as measured in antigen capture ELISA,"[1]; 100 μM, day 3 post infection","0,062 o. D."
same,HIV-1 antigen production as measured in antigen capture ELISA,"[1]; 100 μM, day 4 post infection","0,053 o. D."
same,HIV-1 antigen production as measured in antigen capture ELISA,"[1]; 100 μM, day 5 post infection","0,061 o. D."
same,HIV-1 antigen production as measured in antigen capture ELISA,"[1]; 100 μM, day 6 post infection","0,100 o. D."
same,HIV-1 antigen production as measured in antigen capture ELISA,"[1]; 100 μM, day 7 post infection","0,265 o. D."
same,HIV-1 antigen production as measured in antigen capture ELISA,"[1]; 100 μM, day 8 post infection","0,296 o. D."
same,HIV-1 antigen production as measured in antigen capture ELISA,[1]; [10],"0,787 o. D."
same,HIV-1 antigen production as measured in antigen capture ELISA,[1]; [11],"0,940 o. D."
same,HIV-1 antigen production as measured in antigen capture ELISA,"[1]; 1000 μM, day 1 post infection","0,071 o. D."
same,HIV-1 antigen production as measured in antigen capture ELISA,"[1]; 1000 μM, day 2 post infection","0,053 o. D."
same,HIV-1 antigen production as measured in antigen capture ELISA,"[1]; 1000 μM, day 3 post infection","0,061 o. D."
same,HIV-1 antigen production as measured in antigen capture ELISA,"[1]; 1000 μM, day 4 post infection","0,057 o. D."
same,HIV-1 antigen production as measured in antigen capture ELISA,"[1]; 1000 μM, day 5 post infection","0,123 o. D."
same,HIV-1 antigen production as measured in antigen capture ELISA,"[1]; 1000 μM, day 6 post infection","0,096 o. D."
same,HIV-1 antigen production as measured in antigen capture ELISA,"[1]; 1000 μM, day 7 post infection","0,415 o. D."
same,HIV-1 antigen production as measured in antigen capture ELISA,"[1]; 1000 μM, day 8 post infection","0,778 o. D."
same,HIV-1 antigen production as measured in antigen capture ELISA,[1]; [12],"1,019 o. D."
same,HIV-1 antigen production as measured in antigen capture ELISA,[1]; [13],"1,000 o. D."
same,"cytotoxic effect for H9 cells, colouration with trypan blue",[2],no cytotoxic effect
same,Reverse Transkriptase Determination,"[3]; 0,1 μM, day 7 post infection",5561 epm/ml
same,Reverse Transkriptase Determination,"[3]; 0,1 μM, day 8 post infection",2314 epm/ml
same,Reverse Transkriptase Determination,[3]; [4],7477 epm/ml
same,Reverse Transkriptase Determination,[3]; [5],113340 epm/ml
same,Reverse Transkriptase Determination,"[3]; 1 μM, day 7 post infection",4575 epm/ml
same,Reverse Transkriptase Determination,"[3]; 1 μM, day 8 post infection",3198 epm/ml
same,Reverse Transkriptase Determination,[3]; [6],4186 epm/ml
same,Reverse Transkriptase Determination,[3]; [7],164240 epm/ml
same,Reverse Transkriptase Determination,"[3]; 10 μM, day 7 post infection",5358 epm/ml
same,Reverse Transkriptase Determination,"[3]; 10 μM, day 8 post infection",4398 epm/ml
same,Reverse Transkriptase Determination,[3]; [8],8823 epm/ml
same,Reverse Transkriptase Determination,[3]; [9],158800 epm/ml
same,Reverse Transkriptase Determination,"[3]; 100 μM, day 7 post infection",3838 epm/ml
same,Reverse Transkriptase Determination,"[3]; 100 μM, day 8 post infection",6370 epm/ml
same,Reverse Transkriptase Determination,[3]; [10],8860 epm/ml
same,Reverse Transkriptase Determination,[3]; [11],96780 epm/ml
same,Reverse Transkriptase Determination,"[3]; 1000 μM, day 7 post infection",7646 epm/ml
same,Reverse Transkriptase Determination,"[3]; 1000 μM, day 8 post infection",4308 epm/ml
same,Reverse Transkriptase Determination,[3]; [12],5343 epm/ml
same,Reverse Transkriptase Determination,[3]; [13],107640 epm/ml
